Laboratory results taken from patent publication US12509460B2 (Skyhawk Therapeutics, Inc., priority 2019, dated 2025).
Read-outs that look alike come from different tables or passages of the source.

Assays:
[1] = system: SMN protein in spinal muscular atrophy (SMA) patient fibroblasts (GM03813, Coriell); experiment: SMN protein assay, Mesoscale Discovery (MSD); format: cell-based, human; settings: for EC50: read-out: SMN2 protein EC50
In short: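 SMA patient fibroblasts (GM03813) seeded at 7000 cells/well and exposed to compound at 2.5 μM to 0.6 nM for 48 hours. Lysates assayed for SMN by MSD immunoassay, with absolute SMN amount calculated from a per-plate SMN standard curve (1 μg/ml to 19.5 pg/ml).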

[2] = system: mHTT protein in GM04724 (CAG 70/20) Huntington's disease patient lymphoblast cells; experiment: mHTT protein assay, 2B7-MW1 assay via Mesoscale Discovery (MSD); format: cell-based, human
In short: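 Patient lymphoblasts treated 48 h with compound from 10 μM to 0.6 nM. mHTT quantified by MSD 2B7-MW1 immunoassay, whose signal depends on polyQ expansion and HTT size. Viability measured on a replicate plate by CellTiter Glo.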

MDR1 = experiment: Blood-brain-barrier (BBB) penetration potential via MDCK-MDR1 permeability assay; settings: dog, MDCK-MDR1, pH 7.4, MDCK-MDR1: Efflux
[3] = system: MDR1-MDCK cell monolayers; experiment: as above
MDR1 (P-gp) = experiment: as above; settings: dog; for Papp A→B at 120 min, 5 μM: MDCK-MDR1, pH 7.4, MDCK-MDR1: Papp A-B; for Papp B→A at 120 min, 5 μM: MDCK-MDR1, pH 7.4, MDCK-MDR1: Papp B-A
[4] = system: SMN FL and SMN Δ7 in spinal muscular atrophy (SMA) patient fibroblasts (GM03813, Coriell); experiment: Quantitative splicing assay (SMN), qPCR; format: cell-based, human; settings: Homo sapiens, Fibroblast, 24 h, 24 h, read-out: SMN2 Splicing FL EC50
Procedure: Spinal muscular atrophy (SMA) patient fibroblasts (GM03813, Coriell) are plated in 96-well plates at 50,000 cells/well. […] Treated cells are lysed and cDNA synthesized using the Fast Advanced Cells-to-Ct kit (Thermofisher A35378) according to the manufacturer's instructions. 2 μL of each cDNA are used in qPCR reactions. […] Reactions are run in a Quant Studio 6 qPCR instrument with default settings.

[5] = Quantitative splicing assay (HTT), qPCR; format: cell-based, human; settings: Homo sapiens, GM04724, 24 h, GM04724 lymphoblasts, read-out: HTT Splicing: E49-50 EC50
In short: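 Patient lymphoblasts (50,000 cells/well) dosed immediately after plating for 24 h at 2.5 uM to 0.15 nM in 0.1% DMSO. Lysed, cDNA made directly from cells, and inclusion of the intron 49 cryptic exon quantified by TaqMan qPCR.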

[6] = SMA patient fibroblasts (GM03813), 48 hours
[7] = GM04724 (CAG 70/20) Huntington's disease patient lymphoblasts
[8] = SMA patient fibroblasts (GM03813)
[9] = SMA patient fibroblasts GM03813, 48 hours, MSD
[10] = GM04724 Huntington's disease patient lymphoblasts
[11] = SMA patient fibroblasts GM03813, 24 h, qPCR

Row | Compound | EC50 [1, 6] [nM] | EC50 [2, 7] [nM] | efflux ratio at 120 min, 5 μM (MDR1) | MDCK-MDR1: % Recov A-B ([3]; A-B) [%] | MDCK-MDR1: % Recov B-A ([3]; B-A) [%] | Papp A→B at 120 min, 5 μM (MDR1 (P-gp); A-B) [×10⁻⁶ cm/s] | Papp B→A at 120 min, 5 μM (MDR1 (P-gp); B-A) [×10⁻⁶ cm/s] | EC50 [4, 8] [nM] | EC50 [5] [nM] | SMN2 protein EC50 [1, 9] | EC50 [2, 10] [nM] | efflux ratio at 120 min, 5 μM (MDR1; efflux ratio) | MDCK-MDR1: % Recov A-B ([3]; A-B direction) [%] | MDCK-MDR1: % Recov B-A ([3]; B-A direction) [%] | Papp A→B at 120 min, 5 μM (MDR1 (P-gp); A-B direction) [×10⁻⁶ cm/s] | Papp B→A at 120 min, 5 μM (MDR1 (P-gp); B-A direction) [×10⁻⁶ cm/s] | EC50 [4, 11] [nM] | EC50 ([5]; qPCR) [nM] | EC50 [1, 9] [nM]
1 | Cc1nc2cc(-c3ccc(N(C)[C@H]4C[C@@H]5CC[C@@H](N5)[C@H]4F)nn3)c(O)cc2s1 [Compound 115B, 5-(6-(((IR,2R,3S,5S)-2-fluoro-8-azabicyclo[3.2.1]octan-3-yl)(methyl)amino)pyridazin-3-yl)-2-methylbenzo[d]thiazol-6-ol] | 0.01 to 15 | 0.01 to 15 | 7 | 71 | 88 | 6.4 | 42.6 | 0.01 to 15 | 0.01 to 15 |  |  |  |  |  |  |  |  |  | 
2 | Cc1nc2cc(O)c(-c3ccc(N(C)[C@@H]4C[C@H]5CC[C@H](N5)[C@@H]4F)nn3)cc2s1 [Compound 116A, 6-(6-(((1S,2S,3R,5R)-2-fluoro-8-azabicyclo[3.2.1]octan-3-yl)(methyl)amino)pyridazin-3-yl)-2-methylbenzo[d]thiazol-5-ol] | 0.01 to 15 | 0.01 to 15 | 10 | 86 | 88 | 4.39 | 42.9 | 51 to 100 | 16 to 50 |  |  |  |  |  |  |  |  |  | 
3 | Cn1cnc2cc(-c3ccc(N(C4CC4)[C@H]4C[C@@H]5CC[C@@H](N5)[C@H]4F)nn3)c(O)cc2c1=O [Compound 56B, 7-(6-(cyclopropyl((1R,2R,3S,5S)-2-fluoro-8-azabicyclo[3.2.1]octan-3-yl)amino)pyridazin-3-yl)-6-hydroxy-3-methylquinazolin-4(3H)-one] |  |  |  |  |  |  |  |  |  | E (501 ≤ E ≤ 10.000) | 0.01 to 15 | 46 | 96 | 97 | 1.12 | 51.2 | 16 to 50 | 0.01 to 15 | 
4 | Cc1cnc(-c2ccc(-c3ccc(N(C)[C@H]4C[C@@H]5CCC[C@@H](N5)[C@H]4F)nn3)c(O)c2)o1 [Compound 16B, 2-(6-(((1R,2R,3S,5S)-2-fluoro-9-azabicyclo[3.3.1]nonan-3-yl)(methyl)amino)pyridazin-3-yl)-5-(5-methyloxazol-2-yl)phenol] |  |  |  |  |  |  |  |  |  |  | 16 to 50 | 16 | 24 | 26 | 1.16 | 18.7 | 16 to 50 | 0.01 to 15 | 0.01 to 15
5 | Cc1nc2cc(-c3ccc(N(C)[C@@H]4C[C@H]5CC[C@H](N5)[C@@H]4F)nn3)c(O)cc2c(=O)n1C [Compound 114A, 7-(6-(((1S,2S,3R,5R)-2-fluoro-8-azabicyclo[3.2.1]octan-3-yl)(methyl)amino)pyridazin-3-yl)-6-hydroxy-2,3-dimethylquinazolin-4(3H)-one] | 0.01 to 15 | 0.01 to 15 | 133 | 102 | 102 | 0.28 | 37.8 | 16 to 50 | 0.01 to 15 |  |  |  |  |  |  |  |  |  | 
6 | CN(c1ccc(-c2ccc(-c3cc[nH]n3)cc2O)nn1)[C@@H]1C[C@H]2CC[C@H](N2)[C@@H]1F (single isomer, unassigned) [Compound 33A] |  |  |  |  |  |  |  |  |  |  | 16 to 50 | 31 | 95 | 105 | 1.33 | 40.7 | 51 to 100 | 16 to 50 | 16 to 50
7 | Cc1nc2cc(O)c(-c3ccc(N(C)[C@@H]4C[C@H]5CC[C@H](N5)[C@@H]4F)nn3)cc2o1 [Compound 117A, 6-(6-(((1S,2S,3R,5R)-2-fluoro-8-azabicyclo[3.2.1]octan-3-yl)(methyl)amino)pyridazin-3-yl)-2-methylbenzo[d]oxazol-5-ol] | 16 to 50 | 16 to 50 | 6 | 84 | 97 | 6.87 | 39.9 | 101 to 500 | 51 to 100 |  |  |  |  |  |  |  |  |  | 
8 | CN(c1ccc(-c2ccc(-c3cn[nH]c3)cc2O)nn1)[C@@H]1C[C@H]2CC[C@H](N2)[C@@H]1F (single isomer, unassigned) [Compound 42A] |  |  |  |  |  |  |  |  |  |  | 0.01 to 15 | 43 | 87 | 91 | 0.86 | 36.8 | 0.01 to 15 | 0.01 to 15 | 0.01 to 15
9 | CN(c1ccc(-c2cc3ncccc3cc2O)nn1)[C@H]1C[C@@H]2CCC[C@@H](N2)[C@H]1F [Compound 78B, 7-(6-(((1R,2R,3S,5S)-2-fluoro-9-azabicyclo[3.3.1]nonan-3-yl)(methyl)amino)pyridazin-3-yl)quinolin-6-ol] |  |  |  |  |  |  |  |  |  |  | 0.01 to 15 | 12 | 73 | 79 | 4.03 | 50.3 | 0.01 to 15 | 0.01 to 15 | 0.01 to 15
10 | CN(c1ccc(-c2ccc(-n3nccn3)cc2O)nn1)[C@@H]1C[C@H]2CC[C@H](N2)[C@@H]1F [Compound 90A, 2-(6-(((1S,2S,3R,5R)-2-fluoro-8-azabicyclo[3.2.1]octan-3-yl)(methyl)amino)pyridazin-3-yl)-5-(2H-1,2,3-triazol-2-yl)phenol] |  |  |  |  |  |  |  |  |  |  | 0.01 to 15 | 3 | 41 | 69 | 6.97 | 22.5 | 0.01 to 15 | 0.01 to 15 | 0.01 to 15
11 | CN(c1ccc(-c2cc3ncccc3cc2O)nn1)[C@H]1C[C@@H]2CC[C@@H](N2)[C@H]1F [Compound 73B, 7-(6-(((1R,2R,3S,5S)-2-fluoro-8-azabicyclo[3.2.1]octan-3-yl)(methyl)amino)pyridazin-3-yl)quinolin-6-ol] |  |  |  |  |  |  |  |  |  |  | 16 to 50 | 16 | 72 | 72 | 3.38 | 55.1 | 0.01 to 15 | 0.01 to 15 | 16 to 50
12 | CN(c1ccc(-c2ccc(-c3ccccn3)cc2O)nn1)[C@H]1C[C@@H]2CCC[C@@H](N2)[C@H]1F [Compound 23B, 2-(6-(((1R,2R,3S,5S)-2-fluoro-9-azabicyclo[3.3.1]nonan-3-yl)(methyl)amino)pyridazin-3-yl)-5-(pyridin-2-yl)phenol] |  |  |  |  |  |  |  |  |  |  | 16 to 50 | 15 | 68 | 98 | 3.17 | 48.2 | 16 to 50 | 16 to 50 | 0.01 to 15
13 | CCN(c1ccc(-c2ccc(-c3cn[nH]c3)cc2O)nn1)[C@@H]1C[C@H]2CC[C@H](N2)[C@@H]1F [Compound 12A, 2-(6-(ethyl((1S,2S,3R,5R)-2-fluoro-8-azabicyclo[3.2.1]octan-3-yl)amino)pyridazin-3-yl)-5-(1H-pyrazol-4-yl)phenol] |  |  |  |  |  |  |  |  |  |  | 16 to 50 | 27 | 72 | 74 | 0.89 | 23.6 | 101 to 500 | 51 to 100 | 16 to 50
